Test results reported in paper PMC9146984, “A Novel Proline-Rich Cathelicidin from the Alpaca Vicugna pacos with Potency to Combat Antibiotic-Resistant Bacteria: Mechanism of Action and the Functional Role of the C-Terminal Region” (Membranes, 2022).
Values after ≈ are worked out from the molar mass of the structure shown. Read-outs that look alike come from different tables or passages of the source. Where a SMILES comes first, the peptide text is derived from it.

Tests used:
[1] = system: E. coli BL21 (DE3) Star cell extract, coupled transcription/translation of EGFP; assay: In vitro transcription/translation inhibition assay (cell-free EGFP synthesis); type: biochemical, Escherichia coli; conditions: EGFP fluorescence, 2 h, 30 °C; at least two independent experiments in triplicate; read-out: IC50, inhibition of in vitro protein synthesis in the E. coli cell-free system
Method: To investigate the effect of cathelicidins on the coupled transcription/translation process, the peptides were added to a cell-free protein synthesis (CFPS) reaction mix with a plasmid encoding enhanced green fluorescent protein (EGFP) variant (F64L, S65T, Q80R, F99S, M153T, and V163A) under control of the T7 promoter as described previously with some modifications. Briefly, the peptides were dissolved in 0.1% BSA in water. Bac7[1–22] was used as a positive control inhibitor. The fluorescence of the sample without inhibitor was set as the 100% value. The reaction proceeded for 2 h in 96-well v-bottom black polystyrene microplates in a plate shaker (30 °C, 1000 rpm). The fluorescence of the synthesized EGFP was measured with the microplate reader AF2200 (λExc = 488 nm, λEm = 510 nm; Eppendorf, Hamburg, Germany). The experimental data were obtained from at least two independent experiments performed in triplicate. Non-linear regression curves were generated using GraphPad Prism v.8.0.1 (GraphPad Software Inc., San Diego, CA, USA).

E. coli = assay: Antimicrobial assay (MIC), E. coli strains; type: cell-based, Escherichia coli; conditions: Mueller–Hinton broth without NaCl
Method: (§1) The reduction of resazurin to resorufin was measured.

E. coli ATCC 25922 = type: cell-based, Escherichia coli; conditions: ATCC 25922, 24 h
Method: as §1

E. coli BW25113 ΔmdtM = type: cell-based, Escherichia coli; conditions: Mueller–Hinton broth, 24 h, 37 °C, median
Method: as §1

E. coli BW25113 ΔompF = type: cell-based, Escherichia coli; conditions: Mueller–Hinton broth, 24 h, 37 °C, median
Method: as §1

E. coli BW25113 ΔsbmA = type: cell-based, Escherichia coli; conditions: Mueller–Hinton broth, 24 h, 37 °C, median
Method: as §1

E. coli BW25113 = type: cell-based, Escherichia coli; conditions: BW25113, 24 h
Method: as §1

[2] = system: E. coli ML-35p cytoplasmic membrane; assay: Cytoplasmic membrane permeabilization (ONPG hydrolysis); type: cell-based, Escherichia coli; conditions: PBS, 37 °C, OD405, 2.5 mM ONPG; two independent experiments
Method: To examine the ability of the peptides to affect the barrier function of the cytoplasmic bacterial membrane, we slightly modified the previously described procedure with the use of the E. coli ML-35p strain constitutively expressing cytoplasmic β-galactosidase but lacking lactose permease. The state of the E. coli ML-35p inner membrane was assessed based on its permeability to chromogenic marker o-nitrophenyl-β-D-galactopyranoside (ONPG, AppliChem, Darmstadt, Germany), which is the β-galactosidase substrate. The cells were incubated in the trypticase soy broth (TSB) for 16 h at 37 °C, washed three times with phosphate-buffered saline (PBS, pH 7.4) to remove residual growth media, adjusted to the concentration of 2.5 × 10^8 CFU/mL, and stored on ice until used. The assay was performed in PBS as well. The final concentration of E. coli ML-35p cells was 2.5 × 10^7 CFU/mL. The concentration of ONPG was 2.5 mM. Peptide samples were placed in the wells of a 96-well plate with a non-binding surface (NBS, Corning #3641), and the optical density (OD) of the solution rose due to the appearance of o-nitrophenol was measured at 405 nm using a microplate reader AF2200 (Eppendorf, Hamburg, Germany). The final volume in each well was 200 µL. Assays were performed at 37 °C under stirring at 500 rpm. Control experiments were performed under the same conditions without adding a peptide. Two independent experiments were performed, and the curve pattern was similar.

[3] = system: human red blood cells (hRBC); assay: Hemolysis (hemoglobin release assay); type: cell-based; conditions: 1.5 h incubation (Figure 3C)
Method: Hemolytic activity of the peptides was tested against the fresh suspension of human red blood cells (hRBC) using the hemoglobin release assay as described previously. Two experiments were performed with the hRBC from blood samples of independent donors. The quantitative data were represented as average means with standard deviations. The colorimetric 3-(4,5-dimethylthiazol-2-yl)-2,5-diphenyltetrazolium bromide (MTT) dye reduction assay was used to determine the cytotoxicity of the peptides against transformed human embryonic kidney cells (HEK293T). 10^4 cells per well in Dulbecco’s modified Eagle’s medium (DMEM/F12) supplemented with 10% fetal bovine serum (FBS; Invitrogen, Waltham, MA, USA) were placed into 96-well plates and then cultured in the CO2-incubator (5% CO2, 37 °C). After the media were removed, the peptides were dissolved in 100 µL of the same medium and added to cell cultures at different final concentrations. 20 h later, 20 μL of MTT (5 mg/mL; Sigma, St. Louis, MO, USA) was added to each well, and the plates were incubated for 4 h at 37 °C. Then, the media were discarded and a 100 µL dimethyl sulfoxide-isopropanol mixture at a ratio of 1:1 (v/v) was added to each well to dissolve the crystallized formazan. The absorbance at 570 nm was measured by a microplate reader AF2200 (Eppendorf, Hamburg, Germany). […]

[4] = system: human embryonic kidney cells (HEK293T); assay: Cytotoxicity (MTT assay); type: cell-based; conditions: HEK293T, 20 h incubation, MTT (Figure 3D)
Method: Hemolytic activity of the peptides was tested against the fresh suspension of human red blood cells (hRBC) using the hemoglobin release assay as described previously. Two experiments were performed with the hRBC from blood samples of independent donors. The quantitative data were represented as average means with standard deviations. The colorimetric 3-(4,5-dimethylthiazol-2-yl)-2,5-diphenyltetrazolium bromide (MTT) dye reduction assay was used to determine the cytotoxicity of the peptides against transformed human embryonic kidney cells (HEK293T). 10^4 cells per well in Dulbecco’s modified Eagle’s medium (DMEM/F12) supplemented with 10% fetal bovine serum (FBS; Invitrogen, Waltham, MA, USA) were placed into 96-well plates and then cultured in the CO2-incubator (5% CO2, 37 °C). After the media were removed, the peptides were dissolved in 100 µL of the same medium and added to cell cultures at different final concentrations. 20 h later, 20 μL of MTT (5 mg/mL; Sigma, St. Louis, MO, USA) was added to each well, and the plates were incubated for 4 h at 37 °C. Then, the media were discarded and a 100 µL dimethyl sulfoxide-isopropanol mixture at a ratio of 1:1 (v/v) was added to each well to dissolve the crystallized formazan. The absorbance at 570 nm was measured by a microplate reader AF2200 (Eppendorf, Hamburg, Germany). The optical density in the wells containing cells cultured without the peptides was assumed to represent 100% cell viability. Two independent experiments were performed for each peptide.

CC[C@H](C)[C@H](NC(=O)[C@H](CCCNC(=N)N)NC(=O)[C@@H](N)CCCNC(=N)N)C(=O)N[C@@H](CCCNC(=N)N)C(=O)N[C@@H](CCCNC(=N)N)C(=O)N1CCC[C@H]1C(=O)N[C@@H](CCCNC(=N)N)C(=O)N[C@@H](CC(C)C)C(=O)N1CCC[C@H]1C(=O)N[C@@H](CCCNC(=N)N)C(=O)N1CCC[C@H]1C(=O)N[C@@H](CCCNC(=N)N)C(=O)N[C@H](C(=O)N1CCC[C@H]1C(=O)N[C@@H](CCCNC(=N)N)C(=O)N1CCC[C@H]1C(=O)O)C(C)C [VicBac[1-16]] (H-RRIRRPRLPRPRVPRP-OH)
IC50 [1]: ~4 µM | killing of E. coli under salt-free conditions (E. coli): 4 to 8 µM

CC[C@H](C)[C@H](NC(=O)[C@H](CCCNC(=N)N)NC(=O)[C@@H]1CCCN1C(=O)[C@H](CCCNC(=N)N)NC(=O)[C@@H]1CCCN1C(=O)[C@@H](NC(=O)[C@H](CCCNC(=N)N)NC(=O)[C@@H]1CCCN1C(=O)[C@H](CCCNC(=N)N)NC(=O)[C@@H]1CCCN1C(=O)[C@H](CC(C)C)NC(=O)[C@H](CCCNC(=N)N)NC(=O)[C@@H]1CCCN1C(=O)[C@H](CCCNC(=N)N)NC(=O)[C@H](CCCNC(=N)N)NC(=O)[C@@H](NC(=O)[C@H](CCCNC(=N)N)NC(=O)[C@@H](N)CCCNC(=N)N)[C@@H](C)CC)C(C)C)C(=O)O [VicBac[1-18]] (H-RRIRRPRLPRPRVPRPRI-OH; N-terminus and C-terminus assumed)
Minimum inhibitory concentration, E. coli strain ATCC 25922 (E. coli ATCC 25922): 2 µM (≈ 4.7 µg/mL) | Minimum inhibitory concentration, E. coli strain ΔmdtM (E. coli BW25113 ΔmdtM; 0.9% NaCl: +): 2 µM (≈ 4.7 µg/mL) | Minimum inhibitory concentration, E. coli strain ΔmdtM (E. coli BW25113 ΔmdtM; 0.9% NaCl: −): 4 µM (≈ 9.39 µg/mL) | Minimum inhibitory concentration, E. coli strain ΔompF (E. coli BW25113 ΔompF; 0.9% NaCl: +): 16 µM (≈ 37.6 µg/mL) | Minimum inhibitory concentration, E. coli strain ΔompF (E. coli BW25113 ΔompF; 0.9% NaCl: −): 8 µM (≈ 18.8 µg/mL) | Minimum inhibitory concentration, E. coli strain ΔsbmA (E. coli BW25113 ΔsbmA; 0.9% NaCl: +): > 64 µM | Minimum inhibitory concentration, E. coli strain ΔsbmA (E. coli BW25113 ΔsbmA; 0.9% NaCl: −): 4 µM (≈ 9.39 µg/mL) | Minimum inhibitory concentration, E. coli strain BW25113 (E. coli BW25113): 4 µM (≈ 9.39 µg/mL)

Melittin [reference compound]
effect on E. coli ML-35p cytoplasmic membrane permeability for ONPG [2]: significant damage | concentration at which almost all cells were completely lysed [3]: < 4 µM | concentration at which almost all cells were completely lysed [4]: < 4 µM
